One data set deals with MCL-1 (Homo sapiens, UniProt Q07820). In words: Protein-protein interaction assay MCL-1/Noxa BH3 peptide (MCL-1 assay), TR-FRET. The class given is binding. The settings on record: MBP-MCL-1 / Noxa BH3-derived peptide, median. In outline: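 Steady-state competition, MCL-1/Noxa BH3, TR-FRET readout; 1 nM MBP-MCL-1, 11-point dose series 0.1 nM–20 μM; overnight 4 °C equilibration; 4-parameter IC50.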
In general terms: TR-FRET usually uses a lanthanide donor and a delayed reading to cut background.

Data set [1] deals with SUDHL10. In words: Induction of caspase-3/7 activity (Caspase-Glo 3/7), SUDHL10. The class given is cell-based. The settings on record: caspase-3/7 induction, SUDHL10 cells, 3 h treatment, median. The essentials: (§1)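 A 3 h, 37 °C compound incubation precedes the Caspase-Glo 3/7 read. After subtracting medium-only signal, EC50s are fitted against the reference compound's maximal caspase induction.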

In data set [2] the test system is SUDHL5. In words: Induction of caspase-3/7 activity (Caspase-Glo 3/7), SUDHL5. The class given is cell-based. The settings on record: caspase-3/7 induction, SUDHL5 cells, 3 h treatment, median. The essentials:
as §1

In data set [3] the test system is SUDHL10. In words: Induction of cytotoxicity (CellTiter-Glo, 5 h), SUDHL10. In general terms: ATP-based viability assays read luminescence as a measure of living cells.
The next data set has as its system A2780. In words: Anti-proliferative effect (CellTiter-Glo, 72 h), A2780. In kind it is cell-based. To be noted: Homo sapiens, A2780, 72 h, A2780 cells, median, read-out: IC50 antiproliferation assay A2780 [M] (median). In outline: (§2)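 Endpoint: CellTiter-Glo luminescence, 10 min after reagent addition. Treatment ran 72 h at 37 °C, humidified. Growth was referenced to a separately plated day 0 plate.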

Data set [4] has as its system SUDHL5. The data set can be described thus: Anti-proliferative effect (CellTiter-Glo, 72 h), SUDHL5. In kind it is cell-based. The settings on record: SUDHL5 cells, antiproliferation, 72 h incubation, median, read-out: Antiproli SUDHL5 [M] (median). The essentials: as §2
Where [5] appears, read: Homo sapiens, SU-DHL10, 5 h, read-out: Cytotox SUDHL10 [M] (median), SUDHL10 cells, cytotoxicity induction, CellTiter-Glo, 5 h incubation, median.
Setting [6] is: read-out: Cytotox SUDHL10 [M] (median), SUDHL10 cells, cytotoxicity induction, CellTiter-Glo, 5 h incubation, median.

Like-named read-outs stand apart in the source and are kept apart here.

Sequence of MCL-1 (Q07820 whole entry): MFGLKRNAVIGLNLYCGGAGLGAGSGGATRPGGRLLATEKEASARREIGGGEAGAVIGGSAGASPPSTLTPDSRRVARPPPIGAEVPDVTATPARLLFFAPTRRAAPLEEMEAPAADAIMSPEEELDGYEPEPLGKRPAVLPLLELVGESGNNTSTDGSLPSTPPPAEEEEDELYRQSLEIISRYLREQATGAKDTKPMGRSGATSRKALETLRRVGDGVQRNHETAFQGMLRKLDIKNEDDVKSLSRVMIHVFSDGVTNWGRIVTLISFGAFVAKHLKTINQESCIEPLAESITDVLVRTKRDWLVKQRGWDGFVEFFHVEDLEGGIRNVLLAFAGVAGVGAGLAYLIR

On to `Cc1c2c(nn1C)COCCCCn1c(C(=O)O)c(CCCOc3cccc4ccccc34)c3cccc-2c31` (racemic) [Example 1-36, (rac)-2,3-dimethyl-7-[3-(naphthalen-1-yloxy)propyl]-2,10,11,12,13,15-hexahydropyrazolo[4′,3′:9,10][1,6]oxazacycloundecino[8,7,6-hi]indole-8-carboxylic Acid], for which the IC50 against MCL-1 was 0.00328 µM; with SUDHL10 [3] (setting [5]), 1.4e-05 M; in the data set on A2780, greater than 3.3e-05 M; with SUDHL5 [4] (Homo sapiens, SU-DHL-5, 72 h) it was 2.63e-06 M. In addition, the EC50 (usually the concentration at which the effect is half-maximal) in the data set on SUDHL10 [1] (Homo sapiens, SU-DHL10, 3 h) was found to be 7.51 µM; in the data set with SUDHL5 [2] (Homo sapiens, SU-DHL-5, 3 h), 3.94 µM.
As to `Cc1nn(C)c2c1-c1cccc3c(CCCOc4cccc5ccccc45)c(C(=O)O)n(c13)CCCCOCC2` (racemic) [Example 017, (rac)-1,3-dimethyl-7-[3-(1-naphthyloxy)propyl]-10,11,12,13,15,16-hexahydro-1H-pyrazolo[4′,3′:9,10][1,6]oxazacyclododecino[8,7,6-hi]indole-8-carboxylic Acid], the IC50 against MCL-1 was 0.00896 µM; in the data set with SUDHL10 [3] (setting [5]) it was greater than 3.3e-05 M; in the data set on A2780 it was greater than 3.3e-05 M; with SUDHL5 [4] (Homo sapiens, SU-DHL-5, 72 h) it was 6.09e-06 M. The EC50 was greater than 33 µM in the data set on SUDHL10 [1] (Homo sapiens, SU-DHL10, 3 h); 31.9 µM in the data set with SUDHL10 [1]; 14.7 µM in the data set on SUDHL5 [2] (Homo sapiens, SU-DHL-5, 3 h).
Take `Cc1ccc2c(CCCOc3cccc4c3CCCC4)c(C(=O)O)n3c2c1-c1c(C)nn(C)c1COCCCC3` (racemic) [Example 039, (rac)-1,3,4-trimethyl-7-[3-(5,6,7,8-tetrahydronaphthalen-1-yloxy)propyl]-110,11,12,13,15-hexahydropyrazolo[4′3′:9,10][1,6]oxazacycloundecino[8,7,6-hi]indole-8-carboxylic Acid]: the IC50 at MCL-1 worked out at 0.00501 µM; with SUDHL10 [3] (setting [5]), 2.97e-05 M; in the data set on A2780, 2.14e-05 M; with SUDHL5 [4] (Homo sapiens, SU-DHL-5, 72 h) it was 1.11e-05 M. In addition, the EC50 in the data set with SUDHL10 [1] (Homo sapiens, SU-DHL10, 3 h) amounted to 24.8 µM; with SUDHL5 [2] (Homo sapiens, SU-DHL-5, 3 h) it was 7.47 µM.
For `CC(C)c1c2c(nn1C)CN(C)CCCn1c(C(=O)O)c(CCCOc3cccc4ccccc34)c3cccc-2c31` (racemic) [Example 113, (rac)-7,10-dimethyl-1-[3-(naphthalen-1-yloxy)propyl]-11-(propan-2-yl)-4,5,6,7,8,10-hexahydropyrazolo[3′,4′:7,8][1,5]diazecino[9,10,1-hi]indole-2-carboxylic Acid], the IC50 against MCL-1 stood at 0.0197 µM; in the data set on SUDHL10 [3] (setting [5]) it was 7.9e-06 M; in the data set with A2780, 8.81e-06 M.
Take `CCc1c2c(nn1C)CN(C)CCCn1c(C(=O)O)c(CCCOc3cccc4ccccc34)c3cccc-2c31` (racemic) [Example 141, (rac)-11-ethyl-7,10-dimethyl-1-[3-(1-naphthyloxy)propyl]-4,5,6,7,8,10-hexahydropyrazolo[3′,4′:7,8][1,5]diazecino[9,10,1-hi]indole-2-carboxylic Acid]: the IC50 against MCL-1 was determined as 0.00727 µM; in the data set with SUDHL10 [3] (setting [5]), 7.87e-06 M; in the data set on A2780 it was 1.48e-05 M; in the data set on SUDHL5 [4] (Homo sapiens, SU-DHL-5, 72 h), 1.39e-06 M. The EC50 is 7.3 µM in the data set with SUDHL10 [1] (Homo sapiens, SU-DHL10, 3 h) and 4.08 µM with SUDHL5 [2] (Homo sapiens, SU-DHL-5, 3 h).
For `CCc1c2c(nn1C)CN(C)CCCn1c(C(=O)O)c(CCCOc3cccc4ccccc34)c3ccc(C)c-2c31` (racemic) [Example 144, (rac)-11-ethyl-7,10,12-trimethyl-1-[3-(1-naphthyloxy)propyl]-4,5,6,7,8,10-hexahydropyrazolo[3′,4′:7,8][1,5]diazecino[9,10,1-hi]indole-2-carboxylic Acid], the IC50 at MCL-1 came out at 0.00334 µM; in the data set with SUDHL10 [3] (setting [5]), 5.02e-06 M; with A2780 it was 1.17e-05 M; with SUDHL5 [4] (Homo sapiens, SU-DHL-5, 72 h), 1.33e-06 M. In addition, the EC50 was 3.91 µM in the data set with SUDHL10 [1] (Homo sapiens, SU-DHL10, 3 h) and 2.85 µM in the data set on SUDHL5 [2] (Homo sapiens, SU-DHL-5, 3 h).
For the compound `CCc1c2c(nn1C)COCCCCn1c(C(=O)O)c(CCCOc3cccc4ccccc34)c3ccc(C)c-2c31` (racemic) [Example 153, (rac)-3-Ethyl-2,4-dimethyl-7-[3-(1-naphthyloxy)propyl]-2,10,11,12,13,15-hexahydropyrazolo[4′,3′:9,10][1,6]oxazacycloundecino[8,7,6-hi]indole-8-carboxylic Acid], the IC50 worked out at 0.0048 µM at MCL-1; 5.1e-06 M with SUDHL10 [3] (setting [5]); 1.52e-05 M with A2780; 7.96e-07 M with SUDHL5 [4] (Homo sapiens, SU-DHL-5, 72 h). For the same compound, the EC50 in the data set on SUDHL10 [1] (Homo sapiens, SU-DHL10, 3 h) came to 5.12 µM; with SUDHL5 [2] (Homo sapiens, SU-DHL-5, 3 h), 1.7 µM.
Turning to `CC(C)OCc1nn(C)c2c1-c1cccc3c(CCCOc4cccc5ccccc45)c(C(=O)O)n(c13)CCCCN(C)C2` (single isomer, unassigned) [Example 1-74, 1,14-dimethyl-7-[3-(naphthalen-1-yloxy)propyl]-3-[(propan-2-yloxy)methyl]-10,11,12,13,14,15-hexahydro-1H-pyrazolo[3′,4′:8,9][1,6]diazacycloundecino[10,11,1-hi]indole-8-carboxylic Acid], the IC50 against MCL-1 came to 0.00479 µM; in the data set on SUDHL10 [3] (setting [6]) it was 1.42e-05 M; with A2780, 1.91e-05 M; in the data set with SUDHL5 [4] (Homo sapiens, SU-DHL-5, 72 h), 9.62e-06 M. The EC50 in the data set on SUDHL10 [1] (Homo sapiens, SU-DHL10, 3 h) was 20.3 µM; in the data set on SUDHL5 [2], 8.87 µM.
`CN1CCCn2c(C(=O)O)c(CCCOc3cccc4ccccc34)c3cccc(c32)-c2c(COc3ccc(N4CCN(S(=O)(=O)N(C)C)CC4)cc3)nn(C)c2C1` (single isomer, unassigned; enantiomer 1) [Example 1-15, (+)-11-({4-[4-(dimethylsulfamoyl)piperazin-1-yl]phenoxy}methyl)-7,9-dimethyl-1-[3-(naphthalen-1-yloxy)propyl]-4,5,6,7,8,9-hexahydropyrazolo[3′,4′:7,8][1,5]diazecino[9,10,1-hi]indole-2-carboxylic Acid (Enantiomer 1)]: the IC50 at MCL-1 turned out to be 0.00303 µM; in the data set on SUDHL10 [3] (setting [6]) it was 1.94e-06 M; with A2780 it was 7.24e-06 M; with SUDHL5 [4], 1.36e-06 M. Moreover, the values for the EC50 in the data set on SUDHL10 [1] and in the data set with SUDHL5 [2] were 1.82 µM and 1.17 µM, respectively.
As for `Cn1nc(COc2ccc(N3CCN(C(=O)C4CC4)CC3)cc2)c2c1COCCCCn1c(C(=O)O)c(CCCOc3cccc4ccccc34)c3cccc-2c31` (single isomer, unassigned; enantiomer 1) [Example 1-22, 3-({4-[4-(cyclopropylcarbonyl)piperazin-1-yl]phenoxy}methyl)-1-methyl-7-[3-(naphthalen-1-yloxy)propyl]-1,10,11,12,13,15-hexahydropyrazolo[4′,3′:9,10][1,6]oxazacycloundecino[8,7,6-hi]indole-8-carboxylic Acid (Enantiomer 1)], the IC50 came out at 0.000787 µM at MCL-1, 2.7e-06 M in the data set with SUDHL10 [3] (setting [6]), 1.83e-05 M in the data set with A2780 and 1.58e-06 M in the data set with SUDHL5 [4]. The EC50 in the data set with SUDHL10 [1] was 2.21 µM; with SUDHL5 [2] it was 1.56 µM.
On to `COCc1nn(C)c2c1-c1cccc3c(CCCOc4cccc5ccccc45)c(C(=O)O)n(c13)CCCN(C)C2` (single isomer, unassigned; enantiomer 2) [Example 1-104, 11-(methoxymethyl)-7,9-dimethyl-1-[3-(1-naphthyloxy)propyl]-4,5,6,7,8,9-hexahydropyrazolo[3′,4′:7,8][1,5]diazecino[9,10,1-hi]indole-2-carboxylic Acid (Enantiomer 2)], for which the IC50 came to 0.00355 µM against MCL-1, 1.78e-05 M in the data set on SUDHL10 [3] (setting [6]) and 3.62e-06 M in the data set on SUDHL5 [4]. For the same compound, the EC50 in the data set with SUDHL10 [1] is 8.64 µM; in the data set with SUDHL5 [2] it was 4.96 µM.

The record behind these values is patent US10981932B2, “Macrocyclic indole derivatives” (Bayer Aktiengesellschaft, priority 2016, dated 2021).
